These results are taken from patent publication US10023592B2, “Bromodomain inhibitors” (Celgene Quanticel Research, Inc., priority 2013, dated 2018).

In one experiment the target is BRD4(BD1) (Homo sapiens (Human), UniProt O60885). Briefly: In vitro enzyme inhibition assay (BRD4 AlphaScreen). The class given is binding. In outline: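 His-tagged BRD4 tested by AlphaScreen for binding of biotinylated H4K5/8/12/16-tetraacetyl peptide. After 20 min at room temperature, streptavidin donor and nickel chelate acceptor beads added (5 μg/mL final each). IC50 determined.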

In experiment [1] the test system is Raji, human Burkitts lymphoma cells. Nature of the experiment: Cell-MTS proliferation assay, Raji. The class given is cell-based. The conditions noted are these: Homo sapiens, 168 hr. The method, boiled down:
(§1)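 Seeded for ~90% confluence at 7 days (Raji 15,000, HL-60 5,000, NCI-H460 3,000 cells/well); compound added 24 h post-plating as 11-point dilution, 100 μM to 2.0 nM final.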
On the technique in general: Formazan colour is commonly taken as a measure of viable cells.

Experiment [2] relates to HL-60, human proleukemia cells. Nature of the experiment: Cell-MTS proliferation assay, HL-60. The conditions noted are these: Homo sapiens, 168 hr. The class given is cell-based. In outline:
as §1

Experiment [3] has as its system NCI-H460, human non-small cell lung cancer cells. Briefly: Cell-MTS proliferation assay, NCI-H460. The conditions noted are these: Homo sapiens, 168 hr. The class given is cell-based. In outline:
as §1

The mark [4] stands for this setting: Raji, Cell-MTS, class symbols A/B/C.
Where [5] appears, read: HL-60, Cell-MTS, class symbols A/B/C.
The mark [6] stands for this setting: NCI-H460, Cell-MTS, class symbols A/B/C.
The mark [7] stands for this setting: in vitro enzyme inhibition assay.
The mark [8] stands for this setting: NCI-H460, Cell-MTS proliferation.
Setting [9] is: Cell-MTS proliferation, Raji cells.
[10] abbreviates: Cell-MTS proliferation, HL-60 cells.
Setting [11] is: Cell-MTS proliferation, NCI-H460 cells.

Consider `CCS(=O)(=O)Nc1cccc(-c2cn(C)c(=O)c3ccc(-c4ccc(C)nc4)cc23)c1` [Example 72, N-[3-[2-methyl-6-(6-methylpyridin-3-yl)-1-oxoisoquinolin-4-yl]phenyl]ethanesulfonamide], for which the IC50 – broadly, the concentration at which inhibition is half-maximal – was under 500 nM against BRD4(BD1) (class symbols A/B/C), under 500 nM in experiment [1] (setting [4]), under 500 nM in experiment [2] (setting [5]) and 500 to 5000 nM in experiment [3] (setting [6]).

Take `CCS(=O)(=O)Nc1cnc(OCC2CC2)c(-c2cn(C)c(=O)c3occc23)c1` [Example 257, N-[6-(cyclopropylmethoxy)-5-(6-methyl-7-oxofuro[2,3-c]pyridin-4-yl)pyridine-3-yl]ethanesulfonamide]: the IC50 against BRD4(BD1) (setting [7]) was under 500 nM; in experiment [1] (Raji, Cell-MTS proliferation), under 500 nM; in experiment [2] (HL-60, Cell-MTS proliferation), under 500 nM; in experiment [3] (setting [8]), over 5000 nM.

On to `CCS(=O)(=O)c1ccc(OCC2CC2)c(-c2cn(C)c(=O)c3cncn23)c1` [Example 368, 5-[2-(cyclopropylmethoxy)-5-ethylsulfonylphenyl]-7-methylimidazo[1,5-a]pyrazine-8-one], for which the half-inhibitory concentration (IC50) against BRD4(BD1) (setting [7]) was under 500 nM; in experiment [1] (Raji, Cell-MTS proliferation), under 500 nM; in experiment [2] (HL-60, Cell-MTS proliferation) it was under 500 nM; in experiment [3] (setting [8]) it was 500 to 5000 nM.

As to `CCC(=O)Nc1ccc(S(C)(=O)=O)cc1-c1cn(C)c(=O)c2ccccc12` [Example 221, N-[2-(2-methyl-1-oxoisoquinolin-4-yl)-4-methylsulfonylphenyl]propanamide], the IC50 was over 5000 nM against BRD4(BD1) (setting [7]); over 5000 nM in experiment [1] (Raji, Cell-MTS proliferation); over 5000 nM in experiment [2] (HL-60, Cell-MTS proliferation); over 5000 nM in experiment [3] (setting [8]).

On to `CN(C)c1cc(-c2cc(S(C)(=O)=O)ccc2OCC2CC2)cn(C)c1=O` [Example 474, 5-[2-(cyclopropylmethoxy)-5-methylsulfonylphenyl]-3-(dimethylamino)-1-methylpyridin-2-one], for which the IC50 at BRD4(BD1) (setting [7]) was under 500 nM; in experiment [1] (setting [9]), under 500 nM; in experiment [2] (setting [10]), under 500 nM; in experiment [3] (setting [11]), over 5000 nM.

With `Cc1cc(-c2cc(S(C)(=O)=O)ccc2NC2CCCC2)cn(C)c1=O` [Example 417, 5-[2-(cyclopentylamino)-5-methylsulfonylphenyl]-1,3-dimethylpyridin-2-one], the IC50 is under 500 nM on BRD4(BD1) (setting [7]), under 500 nM in experiment [1] (setting [9]), under 500 nM in experiment [2] (setting [10]) and over 5000 nM in experiment [3] (setting [11]).

Regarding `CCS(=O)(=O)c1ccc(Oc2ccc(F)cc2F)c(-c2cn(C)c(=O)c3cncn23)c1` [Example 376, 5-[2-(2,4-difluorophenoxy)-5-ethylsulfonylphenyl]-7-methylimidazo[1,5-a]pyrazin-8-one], the IC50 against BRD4(BD1) (setting [7]) was under 500 nM; in experiment [1] (setting [9]), 500 to 5000 nM; in experiment [2] (setting [10]), under 500 nM; in experiment [3] (setting [11]), over 5000 nM.

In the case of `Cc1cc(-c2nc(NS(C)(=O)=O)ncc2Oc2ccc(F)cc2F)cn(C)c1=O` [Example 166, N-[5-(2,4-difluorophenoxy)-4-(1,5-dimethyl-6-oxopyridin-3-yl)pyrimidin-2-yl]methanesulfonamide], the IC50 at BRD4(BD1) (setting [7]) is under 500 nM; in experiment [1] (Raji, Cell-MTS proliferation) it was under 500 nM; in experiment [2] (HL-60, Cell-MTS proliferation), under 500 nM; in experiment [3] (setting [8]) it was over 5000 nM.

`Cn1cc(-c2cc(S(C)(=O)=O)ccc2NC2CCOCC2)c2ccccc2c1=O` [Example 191, 2-methyl-4-[5-methylsulfonyl-2-(oxan-4-ylamino)phenyl]isoquinolin-1-one]: the IC50 on BRD4(BD1) (setting [7]) is under 500 nM; in experiment [1] (Raji, Cell-MTS proliferation) it was under 500 nM; in experiment [2] (HL-60, Cell-MTS proliferation), under 500 nM; in experiment [3] (setting [8]), over 5000 nM.

As for `Cc1nc2c(=O)n(C)cc(-c3cc(S(C)(=O)=O)ccc3OCC3CC3)c2o1` [Example 238, 7-[2-(cyclopropylmethoxy)-5-methylsulfonylphenyl]-2,5-dimethyl-[1,3]oxazolo[4,5-c]pyridin-4-one], the IC50 on BRD4(BD1) (setting [7]) was under 500 nM; in experiment [1] (Raji, Cell-MTS proliferation), 500 to 5000 nM; in experiment [2] (HL-60, Cell-MTS proliferation), under 500 nM; in experiment [3] (setting [8]) it was over 5000 nM.

In the case of `CCS(=O)(=O)c1ccc(NC2CCCC2)c(-c2cc(C)c(=O)n(C)c2)c1` [Example 416, 5-[2-(cyclopentylamino)-5-ethylsulfonylphenyl]-1,3-dimethylpyridin-2-one], the concentration for half-maximal inhibition (IC50) is under 500 nM at BRD4(BD1) (setting [7]), under 500 nM in experiment [1] (setting [9]), under 500 nM in experiment [2] (setting [10]) and over 5000 nM in experiment [3] (setting [11]).

As for `CCS(=O)(=O)c1ccc(OCC2CC2)c(-c2cc(F)c(=O)n(C)c2)c1` [Example 274, 5-[2-(cyclopropylmethoxy)-5-ethylsulfonylphenyl]-3-fluoro-1-methylpyridin-2-one], the IC50 was under 500 nM against BRD4(BD1) (setting [7]); 500 to 5000 nM in experiment [1] (Raji, Cell-MTS proliferation); 500 to 5000 nM in experiment [2] (HL-60, Cell-MTS proliferation); over 5000 nM in experiment [3] (setting [8]).

On to `Cn1cc(-c2cc(S(C)(=O)=O)ccc2OCC2CC2)cc(F)c1=O` [Example 119, 5-[2-(cyclopropylmethoxy)-5-methylsulfonylphenyl]-3-fluoro-1-methylpyridin-2-one], for which the IC50 at BRD4(BD1) (class symbols A/B/C) is 500 to 5000 nM; in experiment [1] (setting [4]), 500 to 5000 nM; in experiment [2] (setting [5]) it was 500 to 5000 nM; in experiment [3] (setting [6]), over 5000 nM.

In the case of `CCS(=O)(=O)Cc1ccc(OCC(F)(F)F)c(-c2cn(C)c(=O)c3cncn23)c1` [Example 371, 5-[5-(ethylsulfonylmethyl)-2-(2,2,2-trifluoroethoxy)phenyl]-7-methylimidazo[1,5-a]pyrazin-8-one], the IC50 on BRD4(BD1) (setting [7]) is 500 to 5000 nM; in experiment [1] (Raji, Cell-MTS proliferation) it was 500 to 5000 nM; in experiment [2] (HL-60, Cell-MTS proliferation) it was 500 to 5000 nM; in experiment [3] (setting [8]), over 5000 nM.

With `CCS(=O)(=O)Nc1ncc(Oc2ccc(F)cc2F)c(-c2cn(C)c(=O)c3c2CCCC3)n1` [Example 173, N-[5-(2,4-difluorophenoxy)-4-(2-methyl-1-oxo-5,6,7,8-tetrahydroisoquinolin-4-yl)pyrimidin-2-yl]ethanesulfonamide], the IC50 against BRD4(BD1) (setting [7]) is under 500 nM; in experiment [1] (Raji, Cell-MTS proliferation), 500 to 5000 nM; in experiment [2] (HL-60, Cell-MTS proliferation), 500 to 5000 nM; in experiment [3] (setting [8]), over 5000 nM.

For the molecule `CCS(=O)(=O)c1ccc(OCC2CC2)c(-c2cn(C)c(=O)c3ccoc23)c1` [Example 378, 7-[2-(cyclopropylmethoxy)-5-ethylsulfonylphenyl]-5-methylfuro[3,2-c] pyridin-4-one], the IC50 against BRD4(BD1) (setting [7]) is under 500 nM; in experiment [1] (setting [9]), under 500 nM; in experiment [2] (setting [10]) it was under 500 nM; in experiment [3] (setting [11]), 500 to 5000 nM.

For `Cn1cc(-c2nc(NS(C)(=O)=O)ncc2OCC2CC2)c2c(c1=O)CCCC2` [Example 163, N-[5-(cyclopropylmethoxy)-4-(2-methyl-1-oxo-5,6,7,8-tetrahydroisoquinolin-4-yl)pyrimidin-2-yl]methanesulfonamide], the IC50 against BRD4(BD1) (setting [7]) is under 500 nM; in experiment [1] (Raji, Cell-MTS proliferation), under 500 nM; in experiment [2] (HL-60, Cell-MTS proliferation), 500 to 5000 nM; in experiment [3] (setting [8]), over 5000 nM.

`Cc1cc(-c2cn(CS(C)(=O)=O)c(=O)cc2OCC2CC2)cn(C)c1=O` [Example 382, 5-[4-(cyclopropylmethoxy)-1-(methylsulfonylmethyl)-6-oxopyridin-3-yl]-1,3-dimethylpyridin-2-one]: the IC50 against BRD4(BD1) (setting [7]) was under 500 nM; in experiment [1] (setting [9]) it was 500 to 5000 nM; in experiment [2] (setting [10]), under 500 nM; in experiment [3] (setting [11]), over 5000 nM.

Take `Cc1cc(-c2cc(S(C)(=O)=O)ccc2OC2CCCC2)cn(C)c1=O` [Example 419, 5-(2-cyclopentyloxy-5-methylsulfonylphenyl)-1,3-dimethylpyridin-2-one]: the IC50 was under 500 nM on BRD4(BD1) (setting [7]), 500 to 5000 nM in experiment [1] (setting [9]), under 500 nM in experiment [2] (setting [10]) and over 5000 nM in experiment [3] (setting [11]).

`CC#CCOc1ccc(S(=O)(=O)CC)cc1-c1cn(C)c(=O)c2ccccc12` [Example 185, 4-(2-but-2-ynoxy-5-ethylsulfonylphenyl)-2-methylisoquinolin-1-one]: the IC50 at BRD4(BD1) (setting [7]) is under 500 nM; in experiment [1] (Raji, Cell-MTS proliferation), under 500 nM; in experiment [2] (HL-60, Cell-MTS proliferation), under 500 nM; in experiment [3] (setting [8]) it was over 5000 nM.

Consider `Cn1cc(-c2cc(CS(C)(=O)=O)ccc2OCC(F)(F)F)cc(Cl)c1=O` [Example 418, 3-chloro-1-methyl-5-[5-(methylsulfonylmethyl)-2-(2,2,2-trifluoroethoxy)phenyl]pyridin-2-one], for which the IC50 at BRD4(BD1) (setting [7]) was under 500 nM; in experiment [1] (setting [9]), 500 to 5000 nM; in experiment [2] (setting [10]) it was under 500 nM; in experiment [3] (setting [11]), over 5000 nM.

For `CCS(=O)(=O)c1ccc(OCC2CC2)c(-c2cn(C)c(=O)c3occc23)c1` [Example 252, 4-[2-(cyclopropylmethoxy)-5-ethylsulfonylphenyl]-6-methylfuro[2,3-c]pyridine-7-one], the IC50 against BRD4(BD1) (setting [7]) is under 500 nM; in experiment [1] (Raji, Cell-MTS proliferation) it was under 500 nM; in experiment [2] (HL-60, Cell-MTS proliferation), under 500 nM; in experiment [3] (setting [8]), over 5000 nM.

Take `Cn1cc(-c2nc(S(C)(=O)=O)ccc2OCC2CC2)c2ccccc2c1=O` [Example 199, 4-[3-(cyclopropylmethoxy)-6-methylsulfonylpyridin-2-yl]-2-methylisoquinolin-1-one]: the IC50 against BRD4(BD1) (setting [7]) was under 500 nM; in experiment [1] (Raji, Cell-MTS proliferation), under 500 nM; in experiment [2] (HL-60, Cell-MTS proliferation), under 500 nM; in experiment [3] (setting [8]) it was over 5000 nM.

In the case of `COc1ccc2c(=O)n(C)cc(-c3cc(S(C)(=O)=O)ccc3OCC3CC3)c2c1` [Example 198, 4-(2-(cyclopropylmethoxy)-5-(methylsulfonyl)phenyl)-6-methoxy-2-methylisoquinolin-1(2H)-one], the IC50 against BRD4(BD1) (setting [7]) was under 500 nM; in experiment [1] (Raji, Cell-MTS proliferation), under 500 nM; in experiment [2] (HL-60, Cell-MTS proliferation) it was under 500 nM; in experiment [3] (setting [8]) it was over 5000 nM.
